“And” between values parts separate entries of the source, which are not always exact repeats. Identical values can stand only once.
Assays:
[1] = tested on: Spontaneously Hypertensive Rats (SHR); experiment: Experiment 5: antihypertensive effect of the sample of Example 2 on SHR; format: in vivo, rat
Experimental: Rats: Spontaneously Hypertensive Rats (SHR), Wistar rats are used as normal controls.
Rat Blood Pressure Measurement: BP-98A Non-invasive Tail Artery Blood Pressure Meter, Japan Soft Rotation Co., Ltd
Group therapy is described in the following description. Blood pressure and body weight are measured and grouped after one week of adaptive feeding in all rats. […] Eight rats in each group are treated for 2 weeks.
The following description discussed with the blood pressure measurement. The rats are preheated at 38° C. for 5-10 minutes to avoid blood flow in the tail of the rat. The blood pressure of the rats is measured three times in a waking and quiet state, and the average value of three times was used as the blood pressure of the rats. Blood pressure is measured twice a week, once 2 hours after administration and once 24 hours after administration, to observe the immediate antihypertensive effect and after 24 hours antihypertensive effect (and the peak-to-valley ratio).
(§1) The following description discusses with the trough-peak ratio calculation of depressurization amplitude. The difference of blood pressure before treatment minus 24 hours after administration is the trough of the range of blood pressure reduction, which is the lowest point before the next administration; the difference of blood pressure before treatment and 2 hours after administration is the peak value of blood pressure reduction, that is, the maximum point of blood pressure reduction after administration. Valley value of depressurization amplitude divided by peak value of depressurization amplitude is equal to valley-peak ratio of depressurization amplitude.

[2] = tested on: Spontaneously Hypertensive Rats (SHR); experiment: Experiment 2: hypotensive effect of samples of Embodiment 1 and 2, tail artery blood pressure; format: in vivo, rat; details: 0.8 g/kg crude drug, amlodipine 0.5 mg/kg
Experimental: Rats: 10 weeks old Spontaneously Hypertensive Rats (SHR), Wistar rats were used as normal controls.
Rat Blood Pressure Measurement: BP-98A Non-invasive Tail Artery Blood Pressure Meter, Japan Soft Rotation Co., Ltd.
Group therapy is described in the following description. Blood pressure and body weight are measured and grouped after one week of adaptive feeding in all rats. […] Eight rats in each group are treated for 8 weeks. Blood pressure is observed for 1 week after withdrawal.
Blood pressure measurement: The rats are preheated at 38° C. for 5-10 minutes to avoid blood flow in the tail of the rat. The blood pressure of the rats is measured three times in a waking and quiet state, and the average value of three measurement times is used as the blood pressure of the rats. Blood pressure is measured twice a week, once 2 hours after administration and once 24 hours after administration, to observe the immediate antihypertensive effect and after 24 hours antihypertensive effect (and the peak-to-valley ratio).
as §1, with “The valley-peak ratio calculation” for “The following description discusses with the trough-peak ratio calculation”, “of depressurization amplitude: The difference” for “of depressurization amplitude. The difference”

[3] = 2 h after administration, treatment for 1 week, medium dose 0.8 g/kg crude drug, amlodipine 0.5 mg/kg
[4] = 2 h after administration, treatment for 2 weeks, medium dose 0.8 g/kg crude drug, amlodipine 0.5 mg/kg
[5] = 24 h after administration, treatment for 1 week, medium dose 0.8 g/kg crude drug, amlodipine 0.5 mg/kg
[6] = 24 h after administration, treatment for 2 weeks, medium dose 0.8 g/kg crude drug, amlodipine 0.5 mg/kg
[7] = before treatment, medium dose group 0.8 g/kg crude drug, amlodipine group 0.5 mg/kg
[8] = treatment for 1 week, medium dose 0.8 g/kg crude drug, amlodipine 0.5 mg/kg
[9] = treatment for 2 weeks, medium dose 0.8 g/kg crude drug, amlodipine 0.5 mg/kg
[10] = 2 h after administration, treatment for 1 week
[11] = 2 h after administration, treatment for 1 week, listed as amlodipine
[12] = 2 h after administration, treatment for 2 weeks
[13] = 2 h after administration, treatment for 3 weeks
[14] = 2 h after administration, treatment for 4 weeks
[15] = 2 h after administration, treatment for 5 weeks
[16] = 2 h after administration, treatment for 6 weeks
[17] = 2 h after administration, treatment for 7 weeks
[18] = 2 h after administration, treatment for 8 weeks
[19] = 2 h after administration, treatment for 8 weeks, listed as amlodipine
[20] = 24 h after administration, treatment for 1 week
[21] = 24 h after administration, treatment for 2 weeks
[22] = 24 h after administration, treatment for 3 weeks

CCOC(=O)C1=C(COCCN)NC(C)=C(C(=O)OC)C1c1ccccc1Cl (stereo not shown) [Amlodipine, amlodipine besylate]
diastolic blood pressure [1, 3]: 146.8 mmHg | systolic blood pressure [1, 3]: 178.2 mmHg | diastolic blood pressure [1, 4]: 148.5 mmHg | systolic blood pressure [1, 4]: 180.5 mmHg | diastolic blood pressure [1, 5]: 157.1 mmHg | systolic blood pressure [1, 5]: 203.5 mmHg | diastolic blood pressure [1, 6]: 157.6 mmHg | systolic blood pressure [1, 6]: 205.6 mmHg | diastolic blood pressure [1, 7]: 159.6 mmHg | systolic blood pressure [1, 7]: 212.7 mmHg and 212.7 ± 6.87 mmHg | 2-hour hypotensive amplitude (peak of systolic blood pressure reduction) [1, 8]: 34.5 mmHg | 24-hour hypotensive amplitude (trough of systolic blood pressure reduction) [1, 8]: 9.2 mmHg | valley-peak ratio of Systolic Blood Pressure Reduction [1, 8]: 0.27 | 2-hour hypotensive amplitude (peak of systolic blood pressure reduction) [1, 9]: 32.2 mmHg | 24-hour hypotensive amplitude (trough of systolic blood pressure reduction) [1, 9]: 7.1 mmHg | valley-peak ratio of Systolic Blood Pressure Reduction [1, 9]: 0.22 | diastolic blood pressure [2, 10]: 143.2 mmHg | systolic blood pressure [2, 10]: 175.1 mmHg | diastolic blood pressure [2, 11]: 143.2±6.41 mmHg | systolic blood pressure [2, 11]: 175.1±4.44 mmHg | diastolic blood pressure [2, 12]: 145.5 mmHg | systolic blood pressure [2, 12]: 178.3 mmHg | diastolic blood pressure [2, 13]: 144.7 mmHg | systolic blood pressure [2, 13]: 177.8 mmHg | diastolic blood pressure [2, 14]: 146.2 mmHg | systolic blood pressure [2, 14]: 175.7 mmHg | diastolic blood pressure [2, 15]: 137.6 mmHg | systolic blood pressure [2, 15]: 174.3 mmHg | diastolic blood pressure [2, 16]: 143.1 mmHg | systolic blood pressure [2, 16]: 178.8 mmHg | diastolic blood pressure [2, 17]: 139.9 mmHg | systolic blood pressure [2, 17]: 175.8 mmHg | diastolic blood pressure [2, 18]: 144.7 mmHg | systolic blood pressure [2, 18]: 178.1 mmHg | diastolic blood pressure [2, 19]: 144.7±3.43 mmHg | systolic blood pressure [2, 19]: 178.1±2.67 mmHg | diastolic blood pressure [2, 20]: 162.3 mmHg | systolic blood pressure [2, 20]: 200.7 mmHg | diastolic blood pressure [2, 21]: 158.6 mmHg | systolic blood pressure [2, 21]: 202.6 mmHg | diastolic blood pressure [2, 22]: 159.0 mmHg | systolic blood pressure [2, 22]: 201.6 mmHg | diastolic blood pressure ([2]; 24 h after administration, treatment for 4 weeks): 161.3 mmHg

— patent US11369654B2, “Application method of Dendrobium candidum in preparing medicine for treating hypertension” (Hangzhou Danhe Pharmaceutical CO., Ltd., priority 2017, dated 2022)
